Columns and labels:
Assay type in all cases: in vivo
[1] = test system: Alopecurus myosuroides (ALOMY); experiment: Pre-emergence biological efficacy (percentage damage); details: Alopecurus myosuroides, 312 h, dose 1,000 g/ha, evaluated after 13 days, 100=total damage, 0=no damage
Experimental: (§1) Seeds of Alopecurus myosuroides (ALOMY), Setaria faberi (SETFA), Echinochloa crus-galli (ECHCG), Solanum nigrum (SOLNI), Amaranthus retoflexus (AMARE) and Ipomea hederaceae (IPOHE) were sown in standard soil in pots. After cultivation for one day under controlled conditions in a glasshouse (at 24/16° C., day/night; 14 hours light; 65% humidity), the plants were sprayed with an aqueous spray solution derived from the formulation of the technical active ingredient in acetone/water (50:50) solution containing 0.5% Tween 20 (polyoxyethylene sorbitan monolaurate, CAS RN 9005-64-5) to give a final dose of 250 or 1000 g/ha of test compound. The test plants were then grown under controlled conditions in the glasshouse (at 24/16° C., day/night; 14 hours light; 65% humidity) and watered twice daily. After 13 days the test was evaluated (100=total damage to plant; 0=no damage to plant).

[2] = test system: Amaranthus retoflexus (AMARE); experiment: as above; details: Amaranthus retroflexus, 312 h, dose 1,000 g/ha, evaluated after 13 days, 100=total damage, 0=no damage
Experimental: as §1

[3] = test system: Echinochloa crus-galli (ECHCG); experiment: as above; details: Echinochloa crus-galli, 312 h, dose 1,000 g/ha, evaluated after 13 days, 100=total damage, 0=no damage
Experimental: as §1

[4] = test system: Ipomea hederaceae (IPOHE); experiment: as above; details: Ipomoea hederacea, 312 h, dose 1,000 g/ha, evaluated after 13 days, 100=total damage, 0=no damage
Experimental: as §1

[5] = test system: Setaria faberi (SETFA); experiment: as above; details: Setaria faberi, 312 h, dose 1,000 g/ha, evaluated after 13 days, 100=total damage, 0=no damage
Experimental: as §1

[6] = test system: Solanum nigrum (SOLNI); experiment: as above; details: Solanum nigrum, 312 h, dose 1,000 g/ha, evaluated after 13 days, 100=total damage, 0=no damage
Experimental: as §1

[7] = test system: Alopecurus myosuroides (ALOMY); experiment: Post-emergence biological efficacy (percentage damage); details: Alopecurus myosuroides, 312 h, dose 1,000 g/ha, evaluated after 13 days, 100=total damage, 0=no damage
Experimental: as §1, with “for 8 days” for “for one day”, “grown on” for “grown”, “in a” for “in the”

[8] = test system: Amaranthus retoflexus (AMARE); experiment: as above; details: Amaranthus retroflexus, 312 h, dose 1,000 g/ha, evaluated after 13 days, 100=total damage, 0=no damage
Experimental: as §1, with “for 8 days” for “for one day”, “grown on” for “grown”, “in a” for “in the”

[9] = test system: Echinochloa crus-galli (ECHCG); experiment: as above; details: Echinochloa crus-galli, 312 h, dose 1,000 g/ha, evaluated after 13 days, 100=total damage, 0=no damage
Experimental: as §1, with “for 8 days” for “for one day”, “grown on” for “grown”, “in a” for “in the”

[10] = test system: Ipomea hederaceae (IPOHE); experiment: as above; details: Ipomoea hederacea, 312 h, dose 1,000 g/ha, evaluated after 13 days, 100=total damage, 0=no damage
Experimental: as §1, with “for 8 days” for “for one day”, “grown on” for “grown”, “in a” for “in the”

[11] = test system: Setaria faberi (SETFA); experiment: as above; details: Setaria faberi, 312 h, dose 1,000 g/ha, evaluated after 13 days, 100=total damage, 0=no damage
Experimental: as §1, with “for 8 days” for “for one day”, “grown on” for “grown”, “in a” for “in the”

[12] = test system: Solanum nigrum (SOLNI); experiment: as above; details: Solanum nigrum, 312 h, dose 1,000 g/ha, evaluated after 13 days, 100=total damage, 0=no damage
Experimental: as §1, with “for 8 days” for “for one day”, “grown on” for “grown”, “in a” for “in the”

SMILES	pest or weed control at 1000 g/ha [1]	pest or weed control at 1000 g/ha [2]	pest or weed control at 1000 g/ha [3]	pest or weed control at 1000 g/ha [4]	pest or weed control at 1000 g/ha [5]	pest or weed control at 1000 g/ha [6]	pest or weed control at 1000 g/ha [7]	pest or weed control at 1000 g/ha [8]	pest or weed control at 1000 g/ha [9]	pest or weed control at 1000 g/ha [10]	pest or weed control at 1000 g/ha [11]	pest or weed control at 1000 g/ha [12]
C=Cc1c(N)nc(-c2ccc(Cl)c(N(C)C)c2F)nc1C(=O)OCCCC [Compound 33-391]	70%	100%	100%	20%	90%	100%	70%	100%	90%	80%	90%	80%
C=Cc1c(N)nc(-c2ccc(Cl)c(N(C)C)c2F)nc1C(=O)OC [Compound 33-61]	0%	50%	0%	40%	10%	30%	20%	70%	20%	90%	30%	80%
COC(=O)c1nc(-c2ccc(Cl)c(OC)c2F)nc(N)c1C [Compound 27-41]	30%	50%	20%	90%	10%	80%	30%	100%	50%	60%	80%	80%
C=Cc1c(N)nc(-c2ccc(Cl)c(N(C)C)c2F)nc1C(=O)OCCC [Compound 33-316]	60%	90%	90%	10%	70%	80%	70%	100%	100%	40%	90%	90%
C=Cc1c(N)nc(-c2ccc(F)c(C)c2)nc1C(=O)OC [Compound 45-61, 4-Amino-5-ethenyl-2-(4-fluoro-3-methylphenyl)-6-methoxycarbonyl-pyrimidine]	50%	100%	40%	0%	50%	40%	50%	100%	40%	30%	50%	70%
COC(=O)c1nc(-c2ccc(Cl)c(OC)c2F)nc(N)c1C(C)=O [Compound 27-53, 4-Amino-2-(4-chloro-2-fluoro-3-methoxy-phenyl)-6-methoxycarbonyl-5-methylcarbonyl-pyrimidine]	20%	90%	20%	100%	10%	100%	30%	100%	30%	60%	40%	90%

Source: US20120053053A1, “PYRIMIDINE DERIVATIVES AND THEIR USE AS HERBICIDES” (SYNGENTA CROP PROTECTION, LLC, priority 2009, published 2012)
